Experimental data taken from patent publication US9302999B2, “Substituted triazoles as herbicides” (E. I. DU PONT DE NEMOURS AND COMPANY, priority 2012, dated 2016).

Tests used:
Type in all cases: in vivo
[1] = test system: barnyardgrass (Echinochloa crus-galli); assay: Test C flooded paddy test: barnyardgrass; settings: scale 0 to 100 (0 no effect, 100 complete control)
Description: (§1) Plant species in the flooded paddy test consisted of rice (Oryza sativa), sedge, umbrella (small-flower umbrella sedge, Cyperus difformis), ducksalad (Heteranthera limosa) and barnyardgrass (Echinochloa crus-galli) grown to the 2-leaf stage for testing. At time of treatment, test pots were flooded to 3 cm above the soil surface, treated by application of test compounds directly to the paddy water, and then maintained at that water depth for the duration of the test.
(§2) Treated plants and controls were maintained in a greenhouse for 13 to 15 days, after which time all species were compared to controls and visually evaluated. Plant response ratings, summarized in Table C, are based on a scale of 0 to 100 where 0 is no effect and 100 is complete control. A dash (-) response means no test result.

[2] = test system: velvetleaf (Abutilon theophrasti); assay: Test A pre-/postemergence: velvetleaf
Method in brief: (§3)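 Whole-plant greenhouse assay in loam/sand. Preemergence directed soil spray plus simultaneous postemergence spray (one- to two-leaf stage, 2–10 cm). Rated visually ~10 days later, 0 = no effect, 100 = complete control.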

[3] = test system: morningglory (Ipomoea spp.); assay: Test A pre-/postemergence: morningglory
Method in brief: as §3

[4] = test system: barnyardgrass (Echinochloa crus-galli); assay: Test A pre-/postemergence: barnyardgrass
Description: (§4) Seeds of barnyardgrass (Echinochloa crus-galli), crabgrass, large (large crabgrass, Digitaria sanguinalis), foxtail, giant (giant foxtail, Setaria faberii), morningglory (Ipomoea spp.), pigweed (Amaranthus retroflexus), velvetleaf (Abutilon theophrasti), wheat (Triticum aestivum), and corn (Zea mays) were planted into a blend of loam soil and sand and treated preemergence with a directed soil spray using test chemicals formulated in a non-phytotoxic solvent mixture which included a surfactant. At the same time these species were also treated with postemergence applications of test chemicals formulated in the same manner.
(§5) Plants ranged in height from two to ten cm and were in the one- to two-leaf stage for the postemergence treatment. Treated plants and untreated controls were maintained in a greenhouse for approximately ten days, after which time all treated plants were compared to untreated controls and visually evaluated for injury. Plant response ratings, summarized in Table A, are based on a 0 to 100 scale where 0 is no effect and 100 is complete control. A dash (-) response means no test result.

[5] = test system: sedge, umbrella (small-flower umbrella sedge, Cyperus difformis); assay: Test C flooded paddy test: sedge, umbrella; settings: scale 0 to 100 (0 no effect, 100 complete control)
Description: as §1, §2

[6] = test system: wheat (Triticum aestivum); assay: Test A pre-/postemergence: wheat
Method in brief: as §3

[7] = test system: ducksalad (Heteranthera limosa); assay: Test C flooded paddy test: ducksalad; settings: scale 0 to 100 (0 no effect, 100 complete control)
Description: as §1, §2

[8] = test system: crabgrass, large (large crabgrass, Digitaria sanguinalis); assay: Test A pre-/postemergence: crabgrass, large
Method in brief: as §3

[9] = test system: corn (Zea mays); assay: Test A pre-/postemergence: corn
Method in brief: as §3

[10] = test system: foxtail, giant (giant foxtail, Setaria faberii); assay: Test A pre-/postemergence: foxtail, giant; settings: for Foxtail, Giant plant response rating: Postemergence; for Plant response rating, Foxtail, Giant: Preemergence
Method in brief: as §3

[11] = test system: rice (Oryza sativa); assay: Test C flooded paddy test: rice; settings: scale 0 to 100 (0 no effect, 100 complete control)
Description: as §1, §2

[12] = test system: pigweed (Amaranthus retroflexus); assay: Test A pre-/postemergence: pigweed
Description: as §4, §5

[13] = Flood (flooded paddy test), 62 g ai/ha, visual rating after 13 to 15 days
[14] = Flood (flooded paddy test), 125 g ai/ha, visual rating after 13 to 15 days
[15] = Flood (flooded paddy test), 250 g ai/ha, visual rating after 13 to 15 days
[16] = Postemergence, 125 g ai/ha, 0 to 100 scale, 0 is no effect, 100 is complete control
[17] = Postemergence, 500 g ai/ha, visual rating on 0 to 100 scale (0 no effect, 100 complete control), approximately ten days
[18] = Preemergence, 125 g ai/ha, 0 to 100 scale (0 no effect, 100 complete control)
[19] = Preemergence, 500 g ai/ha, 0 to 100 scale, 0 is no effect, 100 is complete control
[20] = Postemergence, 1000 g ai/ha, visual rating on 0 to 100 scale (0 no effect, 100 complete control), approximately ten days
[21] = Preemergence, 1000 g ai/ha, 0 to 100 scale, 0 is no effect, 100 is complete control

Question: How did the “Plant response rating, Barnyardgrass” value [1, 13] turn out when `Cc1nn(-c2ccc(C(F)(F)F)cn2)nc1Cn1cnc(C(F)(F)F)n1` [Compound 8] was run?
Answer: 0

Question: And the “Plant response rating, Barnyardgrass” value [1, 14]?
Answer: 0

Question: And the “Plant response rating, Barnyardgrass” value [1, 15]?
Answer: 0

Question: What about the “Plant response rating, Barnyardgrass” value ([1]; Flood, 31 g ai/ha) of the same molecule?
Answer: 0

Question: What about the “Velvetleaf plant response rating” value [2, 16] of the same molecule?
Answer: 30

Question: And the “Velvetleaf plant response rating” value [2, 17]?
Answer: 80

Question: And the “Plant response rating, Velvetleaf” value [2, 18]?
Answer: 20

Question: What about the “Plant response rating, Velvetleaf” value [2, 19] of the same molecule?
Answer: 60

Question: What about the “Morningglory plant response rating” value [3, 16] of the same molecule?
Answer: 90

Question: And the “Morningglory plant response rating” value [3, 17]?
Answer: 90

Question: And the “Plant response rating, Morningglory” value [3, 18]?
Answer: 30

Question: And the “Plant response rating, Morningglory” value [3, 19]?
Answer: 90

Question: What about the “Barnyardgrass plant response rating” value [4, 16] of the same molecule?
Answer: 10

Question: What about the “Barnyardgrass plant response rating” value [4, 17] of the same molecule?
Answer: 80

Question: And the “Plant response rating, Barnyardgrass” value [4, 18]?
Answer: 20

Question: What about the “Plant response rating, Barnyardgrass” value [4, 19] of the same molecule?
Answer: 80

Question: What about the “Plant response rating, Sedge, Umbrella” value [5, 13] of the same molecule?
Answer: 0

Question: And the “Plant response rating, Sedge, Umbrella” value [5, 14]?
Answer: 0

Question: What about the “Plant response rating, Sedge, Umbrella” value [5, 15] of the same molecule?
Answer: 75

Question: And the “Plant response rating, Sedge, Umbrella” value ([5]; Flood, 31 g ai/ha)?
Answer: 0

Question: And the “Wheat plant response rating” value [6, 16]?
Answer: 0

Question: What about the “Wheat plant response rating” value [6, 17] of the same molecule?
Answer: 20

Question: What about the “Plant response rating, Wheat” value [6, 18] of the same molecule?
Answer: 0

Question: What about the “Plant response rating, Wheat” value [6, 19] of the same molecule?
Answer: 10

Question: And the “Plant response rating, Ducksalad” value [7, 13]?
Answer: 0

Question: And the “Plant response rating, Ducksalad” value [7, 14]?
Answer: 0

Question: What about the “Plant response rating, Ducksalad” value [7, 15] of the same molecule?
Answer: 45

Question: And the “Plant response rating, Ducksalad” value ([7]; Flood, 31 g ai/ha)?
Answer: 0

Question: And the “Crabgrass, Large plant response rating” value [8, 16]?
Answer: 40

Question: What about the “Crabgrass, Large plant response rating” value [8, 17] of the same molecule?
Answer: 80

Question: And the “Plant response rating, Crabgrass, Large” value [8, 18]?
Answer: 90

Question: And the “Plant response rating, Crabgrass, Large” value [8, 19]?
Answer: 100

Question: And the “Corn plant response rating” value [9, 16]?
Answer: 20

Question: And the “Corn plant response rating” value [9, 17]?
Answer: 40

Question: And the “Plant response rating, Corn” value [9, 18]?
Answer: 0

Question: And the “Plant response rating, Corn” value [9, 19]?
Answer: 0

Question: What about the “Foxtail, Giant plant response rating” value ([10]; 125 g ai/ha, 0 to 100 scale, 0 is no effect, 100 is complete control) of the same molecule?
Answer: 30

Question: What about the “Foxtail, Giant plant response rating” value ([10]; 500 g ai/ha, visual rating on 0 to 100 scale (0 no effect, 100 complete control), approximately ten days) of the same molecule?
Answer: 80

Question: What about the “Plant response rating, Foxtail, Giant” value ([10]; 125 g ai/ha, 0 to 100 scale (0 no effect, 100 complete control)) of the same molecule?
Answer: 60

Question: What about the “Plant response rating, Foxtail, Giant” value ([10]; 500 g ai/ha, 0 to 100 scale, 0 is no effect, 100 is complete control) of the same molecule?
Answer: 90

Question: And the “Plant response rating, Rice” value [11, 13]?
Answer: 0

Question: What about the “Plant response rating, Rice” value [11, 14] of the same molecule?
Answer: 0

Question: And the “Plant response rating, Rice” value [11, 15]?
Answer: 0

Question: What about the “Plant response rating, Rice” value ([11]; Flood, 31 g ai/ha) of the same molecule?
Answer: 0

Question: And the “Pigweed plant response rating” value [12, 16]?
Answer: 60

Question: What about the “Pigweed plant response rating” value [12, 17] of the same molecule?
Answer: 100

Question: And the “Plant response rating, Pigweed” value [12, 18]?
Answer: 90

Question: And the “Plant response rating, Pigweed” value [12, 19]?
Answer: 100

Question: For `FC(F)(F)c1ccc(-n2nc(Br)c(Cc3cccc(C(F)(F)F)c3)n2)nc1` [Compound 105], which “Plant response rating, Barnyardgrass” value [1, 14] is on record?
Answer: 0

Question: And the “Plant response rating, Barnyardgrass” value [1, 15]?
Answer: 0

Question: What about the “Plant response rating, Barnyardgrass” value ([1]; Flood, 31 g ai/ha) of the same molecule?
Answer: 0

Question: What about the “Plant response rating, Barnyardgrass” value ([1]; Flood, 62 g ai/ha) of the same molecule?
Answer: 0

Question: What about the “Velvetleaf plant response rating” value [2, 20] of the same molecule?
Answer: 40

Question: What about the “Velvetleaf plant response rating” value [2, 21] of the same molecule?
Answer: 10

Question: What about the “Morningglory plant response rating” value [3, 20] of the same molecule?
Answer: 90

Question: And the “Morningglory plant response rating” value [3, 21]?
Answer: 10

Question: And the “Barnyardgrass plant response rating” value [4, 20]?
Answer: 10

Question: And the “Barnyardgrass plant response rating” value [4, 21]?
Answer: 10

Question: What about the “Plant response rating, Sedge, Umbrella” value [5, 14] of the same molecule?
Answer: 0

Question: What about the “Plant response rating, Sedge, Umbrella” value [5, 15] of the same molecule?
Answer: 0

Question: What about the “Plant response rating, Sedge, Umbrella” value ([5]; Flood, 31 g ai/ha) of the same molecule?
Answer: 0

Question: What about the “Plant response rating, Sedge, Umbrella” value ([5]; Flood, 62 g ai/ha) of the same molecule?
Answer: 0

Question: What about the “Wheat plant response rating” value [6, 20] of the same molecule?
Answer: 0

Question: And the “Wheat plant response rating” value [6, 21]?
Answer: 0

Question: And the “Plant response rating, Ducksalad” value [7, 14]?
Answer: 0

Question: What about the “Plant response rating, Ducksalad” value [7, 15] of the same molecule?
Answer: 0

Question: And the “Plant response rating, Ducksalad” value ([7]; Flood, 31 g ai/ha)?
Answer: 0

Question: What about the “Plant response rating, Ducksalad” value ([7]; Flood, 62 g ai/ha) of the same molecule?
Answer: 0

Question: And the “Crabgrass, Large plant response rating” value [8, 20]?
Answer: 50

Question: What about the “Crabgrass, Large plant response rating” value [8, 21] of the same molecule?
Answer: 50

Question: And the “Corn plant response rating” value [9, 20]?
Answer: 10

Question: What about the “Corn plant response rating” value [9, 21] of the same molecule?
Answer: 0

Question: What about the “Plant response rating, Rice” value [11, 14] of the same molecule?
Answer: 0

Question: What about the “Plant response rating, Rice” value [11, 15] of the same molecule?
Answer: 0

Question: What about the “Plant response rating, Rice” value ([11]; Flood, 31 g ai/ha) of the same molecule?
Answer: 0

Question: What about the “Plant response rating, Rice” value ([11]; Flood, 62 g ai/ha) of the same molecule?
Answer: 0

Question: What about the “Pigweed plant response rating” value [12, 20] of the same molecule?
Answer: 100

Question: And the “Pigweed plant response rating” value [12, 21]?
Answer: 90
